Source: EP4603105A1, “PHARMACEUTICAL COMPOSITION CONTAINING CYCLIC COMPOUND HAVING SELECTIVE KRAS INHIBITORY EFFECT AGAINST HRAS AND NRAS” (CHUGAI SEIYAKU KABUSHIKI KAISHA, priority 2022, dated 2024)
*1 amine or outer side, *2 acyl side, *3 side chain or, on linkers, in order; H or OH if unused. Where a SMILES comes first, the peptide text is derived from it. Bridges are numbered along the chain shown (N, C = ends). [ ]: non-standard residue; d: D form. The star is where a group is joined. hPhe(3-Cl-4-CF3) = N[C@@H](CCc1ccc(C(F)(F)F)c(Cl)c1)C(=O)O; NPrPhe(4-CF3) = CCCN[C@@H](Cc1ccc(C(F)(F)F)cc1)C(=O)O; X41 = CCCN([C@@H](Cc1ccc(OC)cc1)C(=O)[*:2])[*:1]; NMeGly(cPent) = CN[C@H](C(=O)O)C1CCCC1; Pro(4,4-F2) = O=C(O)[C@@H]1CC(F)(F)CN1; Gly(cBu) = N[C@H](C(=O)O)C1CCC1; NMeD = CN[C@@H](CC(=O)O)C(=O)O; NMeL = CN[C@@H](CC(C)C)C(=O)O; Morpholide = C1CN(*)CCO1; NMeA = CN[C@@H](C)C(=O)O; Ac5c = NC1(C(=O)O)CCCC1; Aze = O=C(O)[C@@H]1CCN1; Ac4c = NC1(C(=O)O)CCC1; NEtG = CCNCC(=O)O; Sar = CNCC(=O)O

Columns and labels:
[1] = system: human lung cancer strain NCI-H441; assay type: cell-based
Method in brief: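 Signal came from […] measured per well once the reagent was added. Beforehand, cells were cultured at 37°C and 5% carbon dioxide on a compound series serially diluted in dimethyl sulfoxide.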

[2] = target: HRAS wild-type protein (Homo sapiens, UniProt P01112); assay: Binding to HRAS by surface plasmon resonance (SPR), KD and KD ratio to KRAS
HRAS wild-type protein, sequence (P01112 whole entry): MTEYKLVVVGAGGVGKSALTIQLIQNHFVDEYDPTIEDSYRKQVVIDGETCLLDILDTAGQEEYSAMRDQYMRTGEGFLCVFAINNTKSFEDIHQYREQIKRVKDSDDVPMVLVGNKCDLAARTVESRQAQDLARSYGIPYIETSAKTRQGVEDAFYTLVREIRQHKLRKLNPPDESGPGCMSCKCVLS
Method in brief: (§1)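 Recombinant RAS proteins bearing a biotinylated Avi tag and loaded with GDP served as the captured ligand, recaptured fresh every cycle. Binding responses were referenced to an uncoated surface and a buffer-only blank cycle. Dissociation constants were obtained by 1:1 model fitting at 30°C.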

[3] = target: GDP-bound NRAS wild-type protein (Homo sapiens, UniProt P01111); assay: Binding to NRAS by surface plasmon resonance (SPR), KD and KD ratio to KRAS
GDP-bound NRAS wild-type protein, sequence (P01111 whole entry): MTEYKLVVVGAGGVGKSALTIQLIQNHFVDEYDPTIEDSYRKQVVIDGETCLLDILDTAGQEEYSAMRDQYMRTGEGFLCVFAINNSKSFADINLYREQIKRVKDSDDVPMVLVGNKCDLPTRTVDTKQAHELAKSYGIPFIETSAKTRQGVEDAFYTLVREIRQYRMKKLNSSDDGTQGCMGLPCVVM
Method in brief: as §1

[4] = ratio of the KD value with respect to HRAS wild-type protein to the KD value with respect to KRAS
[5] = ratio of the KD value with respect to GDP-bound NRAS wild-type protein to the KD value with respect to KRAS
[6] = ratio of KD for HRAS wild-type protein to KD for KRAS
[7] = ratio of KD for GDP-bound NRAS wild-type protein to KD for KRAS
[8] = ratio of KD value for HRAS wild-type protein to KD value for KRAS (SPR)
[9] = ratio of KD value for GDP-bound NRAS wild-type protein to KD value for KRAS (SPR)

Compound: C=CCN1CC(=O)N(C)[C@H]2C/C=C\CCN(C2=O)[C@@H](Cc2ccc(C)cc2)C(=O)N(C)CC(=O)N[C@@H](CCc2ccc(C(F)(F)F)c(OC)c2)C(=O)N2C[C@H](OCC)C[C@H]2C(=O)NC2(CC(C)(C)C2)C(=O)N(C)[C@@H](C2CCCC2)C(=O)N(C)[C@H](C(=O)N(C)C)CC(=O)N(C)[C@@H](CCC)C(=O)N[C@@H]([C@@H](C)CC)C1=O [PP2098]
- IC50 [1]: 8.4 nM
- HRAS /KRAS [2, 4]: A (a compound having 10 or more and less than 20 is denoted as A)
- NRAS /KRAS [3, 5]: A (a compound having 10 or more and less than 20 is denoted as A)

Compound: CCCN1C(=O)[C@@H]2CCN2C(=O)[C@H](C)N(C)C(=O)[C@H]([C@@H](C)CC)NC(=O)[C@H](CC(C)C)N(C)C(=O)C[C@@H](C(=O)N2CCOCC2)N(C)C(=O)[C@H](C2CCCC2)N(C)C(=O)C2(CCCC2)NC(=O)[C@@H]2CCCN2C(=O)[C@H](CCc2ccc(C(F)(F)F)c(Cl)c2)NC(=O)CN(C)C(=O)[C@@H]1Cc1ccc(OC)cc1 [PP0134] ([NMeL]I[NMeA][Aze][X41][Sar][hPhe(3-Cl-4-CF3)]P[Ac5c][NMeGly(cPent)][NMeD]-Morpholide; lactam N-11)
- IC50 [1]: 18.5 nM
- HRAS /KRAS [2, 6]: B (a compound having 3 or more and less than 10 is denoted as B)
- NRAS /KRAS [3, 7]: C (A compound having a KD ratio of 0.1 or more and less than 3 is denoted as C)

Compound: CCO[C@@H]1C[C@H]2C(=O)NC3(CC(C)(C)C3)C(=O)N(C)[C@@H](C3CCCC3)C(=O)N(C)[C@H](C(=O)N(C)CC)CC(=O)N(C)[C@@H](COC)C(=O)N[C@@H]([C@@H](C)CC)C(=O)N(C)CC(=O)N(C)[C@H]3C/C=C\CCN(C3=O)[C@@H](Cc3ccc(C(F)(F)F)cc3)C(=O)N(C)CC(=O)N[C@@H](CCc3ccc(C(F)(F)F)c(Cl)c3)C(=O)N2C1 [PP2836]
- IC50 [1]: 5.1 nM
- HRAS /KRAS [2, 6]: A (a compound having 10 or more and less than 20 is denoted as A)
- NRAS /KRAS [3, 7]: A (a compound having 10 or more and less than 20 is denoted as A)

Compound: C=CCCCC[C@H]1C(=O)N[C@@H]([C@@H](C)CC)C(=O)N(C)CC(=O)N(C)[C@H]2CCCCN(C2=O)[C@@H](Cc2ccc(C(F)(F)F)cc2)C(=O)N(C)CC(=O)N[C@@H](CCc2cc(F)c(C(F)(F)F)c(F)c2)C(=O)N2C[C@H](OCC)C[C@H]2C(=O)N[C@](C)(CC=C)C(=O)N(C)[C@@H](C2CCCC2)C(=O)N(C)[C@H](C(=O)N2CCOCC2)CC(=O)N1C [PP0877]
- IC50 [1]: 18.8 nM
- HRAS /KRAS [2, 6]: B (a compound having 3 or more and less than 10 is denoted as B)
- NRAS /KRAS [3, 7]: C (A compound having a KD ratio of 0.1 or more and less than 3 is denoted as C)

Compound: CCCN1C(=O)CN(C)C(=O)CN(C)C(=O)[C@H]([C@@H](C)CC)NC(=O)[C@H](CC(C)C)N(C)C(=O)C[C@@H](C(=O)N2CCOCC2)N(C)C(=O)[C@H](C2CCCC2)N(C)C(=O)C2(CCC2)NC(=O)[C@@H]2CCCN2C(=O)[C@H](CCc2ccc(C(F)(F)F)c(Cl)c2)NC(=O)CN(CC)C(=O)[C@@H]1Cc1ccc(C(F)(F)F)cc1 [PP1950] ([NMeL]I[Sar][Sar][NPrPhe(4-CF3)][NEtG][hPhe(3-Cl-4-CF3)]P[Ac4c][NMeGly(cPent)][NMeD]-Morpholide; lactam N-11)
- IC50 [1]: 32.5 nM
- HRAS /KRAS [2, 4]: C (A compound having a KD ratio of 0.1 or more and less than 3 is denoted as C)
- NRAS /KRAS [3, 5]: B (a compound having 3 or more and less than 10 is denoted as B)

Compound: CCC[C@H]1C(=O)N[C@@H]([C@@H](C)CC)C(=O)N(C)CC(=O)N(C)[C@H]2C/C=C\CCN(C2=O)[C@@H](Cc2ccc(C(F)(F)F)cc2)C(=O)N(C)CC(=O)N[C@@H](CCc2ccc(C(F)(F)F)c(OC)c2)C(=O)N2CC[C@H]2C(=O)NC2(CC(C)(C)C2)C(=O)N(C)[C@@H](C(CC)CC)C(=O)N(C)[C@H](C(=O)N(C)C)CC(=O)N1C [PP2936]
- IC50 [1]: 187 nM
- HRAS /KRAS [2, 6]: A (a compound having 10 or more and less than 20 is denoted as A)
- NRAS /KRAS [3, 7]: AA (a compound having 20 or more is denoted as AA)

Compound: CCCOC[C@H]1C(=O)N[C@@H]([C@@H](C)CC)C(=O)N(C)CC(=O)N(C)[C@H]2C/C=C\CCN(C2=O)[C@@H](CC2CCC(F)(F)CC2)C(=O)N(C)CC(=O)N[C@@H](CCc2ccc(C(F)(F)F)c(OC)c2)C(=O)N2C[C@H](OCC)C[C@H]2C(=O)N(C)C2(CCC2)C(=O)N(C)[C@@H](C2CCCC2)C(=O)N(C)[C@H](C(=O)N(C)C)CC(=O)N1C [PP2350]
- IC50 [1]: 60.3 nM
- HRAS /KRAS [2, 4]: A (a compound having 10 or more and less than 20 is denoted as A)
- NRAS /KRAS [3, 5]: A (a compound having 10 or more and less than 20 is denoted as A)

Compound: CCCN1C(=O)[C@@H]2CCN2C(=O)[C@H](C)N(C)C(=O)[C@H]([C@@H](C)CC)NC(=O)[C@H](CC(C)C)N(C)C(=O)C[C@@H](C(=O)N2CCOCC2)NC(=O)[C@H](C2CCCC2)N(C)C(=O)C2(CCC2)NC(=O)[C@@H]2CC(F)(F)CN2C(=O)[C@H](CCc2ccc(C(F)(F)F)c(Cl)c2)NC(=O)CN(C)C(=O)[C@@H]1Cc1ccc(C(F)(F)F)cc1 [PP0346] ([NMeL]I[NMeA][Aze][NPrPhe(4-CF3)][Sar][hPhe(3-Cl-4-CF3)][Pro(4,4-F2)][Ac4c][NMeGly(cPent)]D-Morpholide; lactam N-11)
- IC50 [1]: 69.5 nM
- HRAS /KRAS [2, 6]: B (a compound having 3 or more and less than 10 is denoted as B)
- NRAS /KRAS [3, 7]: C (A compound having a KD ratio of 0.1 or more and less than 3 is denoted as C)

Compound: CC[C@H](C)[C@@H]1NC(=O)[C@H](CC2CC2)N(C)C(=O)C[C@@H](C(=O)N(C)C)N(C)C(=O)[C@H](C2CCCC2)N(C)C(=O)C2(CC(C)(C)C2)NC(=O)[C@@H]2C[C@@H](F)CN2C(=O)[C@H](CCc2cc(F)c(C(F)(F)F)c(F)c2)NC(=O)CN(C)C(=O)[C@H](Cc2ccc(C(F)(F)F)cc2)N2CC/C=C\C[C@@H](C2=O)N(C)C(=O)CN(C)C1=O [PP1501]
- IC50 [1]: 1.5 nM
- HRAS /KRAS [2, 8]: A (a compound having 10 or more and less than 20 is denoted as A)
- NRAS /KRAS [3, 9]: A (a compound having 10 or more and less than 20 is denoted as A)

Compound: CC[C@H](C)[C@@H]1NC(=O)[C@H](C2CCC2)N(C)C(=O)C[C@@H](C(=O)N(C)CC)N(C)C(=O)[C@H](C2CCCC2)N(C)C(=O)C2(CC(C)(C)C2)NC(=O)[C@@H]2C[C@H](C)CN2C(=O)[C@H](CCc2ccc(C(F)(F)F)c(OC)c2)NC(=O)CN(C)C(=O)[C@H](Cc2ccc(C(F)(F)F)cc2)N2CC/C=C\C[C@@H](C2=O)N(C)C(=O)CN(C)C1=O [PP2009]
- IC50 [1]: 19.7 nM
- HRAS /KRAS [2, 4]: A (a compound having 10 or more and less than 20 is denoted as A)
- NRAS /KRAS [3, 5]: A (a compound having 10 or more and less than 20 is denoted as A)

Compound: CCCN1C(=O)CN(C)C(=O)CN(C)C(=O)[C@H](C2CCC2)NC(=O)[C@H](CC(C)C)N(C)C(=O)C[C@@H](C(=O)N2CCOCC2)N(C)C(=O)[C@H](C2CCCC2)N(C)C(=O)C2(CCCC2)NC(=O)[C@@H]2CCCN2C(=O)[C@H](CCc2ccc(C(F)(F)F)c(Cl)c2)NC(=O)CN(C)C(=O)[C@@H]1Cc1ccc(C(F)(F)F)cc1 [PP0250] ([NMeL][Gly(cBu)][Sar][Sar][NPrPhe(4-CF3)][Sar][hPhe(3-Cl-4-CF3)]P[Ac5c][NMeGly(cPent)][NMeD]-Morpholide; lactam N-11)
- IC50 [1]: 6.7 nM
- HRAS /KRAS [2, 6]: C (A compound having a KD ratio of 0.1 or more and less than 3 is denoted as C)
- NRAS /KRAS [3, 7]: B (a compound having 3 or more and less than 10 is denoted as B)

Compound: CCCN1C(=O)[C@@H]2CCN2C(=O)CN(C)C(=O)[C@H]([C@@H](C)CC)NC(=O)[C@H](CC(C)C)N(C)C(=O)C[C@@H](C(=O)N2CCOCC2)NC(=O)[C@H](C2CCCC2)N(C)C(=O)C2(CCCC2)NC(=O)[C@@H]2CCCN2C(=O)[C@H](CCc2ccc(C(F)(F)F)c(Cl)c2)NC(=O)CN(C)C(=O)[C@@H]1Cc1ccc(C(F)(F)F)cc1 [PP0349] ([NMeL]I[Sar][Aze][NPrPhe(4-CF3)][Sar][hPhe(3-Cl-4-CF3)]P[Ac5c][NMeGly(cPent)]D-Morpholide; lactam N-11)
- IC50 [1]: 75.9 nM
- HRAS /KRAS [2, 6]: B (a compound having 3 or more and less than 10 is denoted as B)
- NRAS /KRAS [3, 7]: C (A compound having a KD ratio of 0.1 or more and less than 3 is denoted as C)

Compound: CCO[C@@H]1C[C@H]2C(=O)N(C)C3(CCCC3)C(=O)N(C)[C@@H](C3CCCC3)C(=O)N(C)[C@H](C(=O)N(C)C)CC(=O)N(C)[C@@H](CC)C(=O)N[C@@H]([C@@H](C)CC)C(=O)N3CCC[C@H]3C(=O)N(C)[C@H]3C/C=C\CCN(C3=O)[C@@H](Cc3ccc(C)cc3)C(=O)N(C)CC(=O)N[C@@H](CCc3cc(F)c(C(F)(F)F)c(F)c3)C(=O)N2C1 [PP1810]
- IC50 [1]: 4.6 nM
- HRAS /KRAS [2, 8]: B (a compound having 3 or more and less than 10 is denoted as B)
- NRAS /KRAS [3, 9]: A (a compound having 10 or more and less than 20 is denoted as A)

Compound: CC[C@H](C)[C@@H]1NC(=O)[C@H](CC)N(C)C(=O)C[C@@H](C(=O)N(CC)CC)N(C)C(=O)[C@H](C2CCCC2)N(C)C(=O)C2(CC(C)(C)C2)NC(=O)[C@@H]2C[C@H](C)CN2C(=O)[C@H](CCc2ccc(C(F)(F)F)c(OC)c2)NC(=O)CN(C)C(=O)[C@H](Cc2ccc(C)cc2)N2CC/C=C\C[C@@H](C2=O)N(C)C(=O)CN(C)C1=O [PP1839]
- IC50 [1]: 24.3 nM
- HRAS /KRAS [2, 8]: B (a compound having 3 or more and less than 10 is denoted as B)
- NRAS /KRAS [3, 9]: A (a compound having 10 or more and less than 20 is denoted as A)
